Results reported in US11246308B2, “Ice-free preservation of large volume tissue samples for viable, functional tissue banking” (TISSUE TESTING TECHNOLOGIES LLC, priority 2016, dated 2022).

Columns and labels:
[1] = system: heart valve tissues (pulmonary artery, leaflet and cardiac muscle); assay: alamarBlue metabolic activity of heart valve tissues vitrified in 4 mL of solution (FIG. 1); type: cell-based; details: for leaflet viability: 4 mL; for leaflet viability / tissue viability: p<0.05; for post-vitrification viability: 0.6M sugar in DP6, VS49 and VS55; for tissue viability: trehalose and sucrose supplementation of vitrification formulations (VS49, DP6, VS55), compared with no additive controls, N=6
Experimental: (§1) In the following ice-free cryopreservation formulation supplementation experiments, disaccharides (trehalose and sucrose) are added to various vitrification formulations (VS49, DP6, and VS55) in the amounts shown in FIG. 1 and compared to a solution (without trehalose and/or sucrose) to access the effectiveness at inhibiting ice formation in various tissues.
Data shown in % of control VS55 results performed with the final cryoprotectant concentration added at 4° C., N=6, *p<0.05 by ANOVA or #T-test compared with no additive controls.
In this experiment, addition of either 600 mM trehalose or sucrose to VS49, DP6 and VS55 formulations was compared. The tissues were vitrified in 4 mL of solution. Trehalose supplementation increased leaflet viability in VS49 and VS55. Sucrose supplementation increased leaflet viability in all three formulations. […] This led to plans to test DP6 with sugars more thoroughly in later experiments. Repetitive experiments were performed using sucrose supplemented VS55 and obtained outcomes similar to those for supplemented VS55 shown here.
Bonafide excess heart valves or blood vessels were obtained from animals employed in other IACUC approved research studies or from a food processing plant post-mortem. The tissues were dissected, rinsed and placed in sterile cups with ice-cold tissue culture medium containing antibiotics overnight and then allocated for in vitro studies. The heart valve tissues in FIG. 1 each consisted of a piece of tissue consisting of pulmonary artery, leaflet and cardiac muscle. They were separated and individually assayed for viability using an assay that assesses metabolic activity that is described below.
(§2) Tissues were gradually infiltrated with VS55 consisting of 3.10 M DMSO, 3.10M formamide, and 2.21 M propylene glycol in Euro-Collins solution at 4° C. using methods previously described for blood vessel vitrification, a dilution of VS55 to VS49 or DP6 consisting of 3 M DMSO, 3 M propylene glycol. Precooled dilute vitrification solutions (4° C.) are added in five sequential 15-min steps of increasing concentration on ice. The last cryoprotectant concentration with mNPs was added in a final sixth addition step in either precooled −10° C. or 4° C. full strength vitrification solution and kept in a −10° C. bath for 15 minutes or at 4° C. on ice in plastic tubes. The samples were then cooled in two steps, first rapid cooling to −100° C. by placing in a precooled 2-methylbutane bath at −135° C. and then by transfer to vapor phase nitrogen storage for slower cooling to below −135° C. Finally, the samples were stored below −130° C. in vapor phase nitrogen for at least 24 h before testing.
(§3) Warming was performed by either convection warming or nanowarming. Convection warming is a two-stage process including slow warming to −100° C. and then as rapid as possible warming to melting. The slow warming rate is created by taking the sample to the top of the −135° C. freezer and the […] warming rate is generated by placing the plastic container in the mixture of 30% DMSO/H2O at room temperature. After rewarming, the vitrification solution was removed in a stepwise manner on ice to keep the tissues cold and minimize cytotoxicity due to the presence of residual cryoprotectants.
Metabolic Activity—An alamarBlue™ assay will be used to evaluate the metabolic activity of control and treated tissue samples. Tissues were incubated in 2 ml of DMEM+10% FBS culture medium for one hour to equilibrate followed by the addition of 20% AlamarBlue under standard cell culture conditions for 3 hours. AlamarBlue is a non-toxic fluorometric indicator based on detection of metabolic activity. Fluorescence was measured at an excitation wavelength of 544 nm and an emission wavelength of 590 nm. […] Control and experimental tissues were dried at the end of each experiment, weighed, and results expressed as relative fluorescence units (RFU)/mg tissue dry weight.

[2] = ice formation in VS55 supplemented with sugars stored at −80 C (FIG. 7); type: physicochemical; details: for sugar concentrations in VS55 that demonstrated ice (white) formation: 24 hours at −80° C.
Experimental: In this experiment 30 mL samples of VS55 with increasing concentrations of sugars were placed in 50 mL plastic tubes and stored in a −80 C mechanical storage freezer for 7 days. The tubes were checked daily for ice formation. […] After one day 0.4 to 0.6M trehalose and 0.5-0.6M sucrose were free of ice, while after 7 days 0.5-0.6M trehalose and 0.6M sucrose groups were free of ice. Lower concentrations of these sugars may still be used for ice-free vitrification but more rapid cooling and warming will be needed because the risk of ice formation will be greater and nanowarming rather than convection warming may be needed. Specifically, FIG. 7 is photograph illustrating the ice formation in VS55 supplemented with sugars at −80° C.: Top left: VS55 with 0-0.6M sucrose at 24 hours; Top right: VS55 with 0-0.6M trehalose at 24 hours. […] Higher concentrations were clear without ice. Bottom left: VS55 with 0-0.6M sucrose at 7 days; and Bottom right: VS55 with 0-0.6M trehalose at 7 days. After a week at −80° C. the highest concentrations of sugars are still free of ice.

[3] = visible ice formation during cooling and rewarming, 1st set of experiments; type: physicochemical; details: for visible ice formation: 0.6M sugar in both DP6 and VS49 formulations; for ice formation during cooling and rewarming: in the presence of the sugar, with nanowarming
Experimental: as §1, §2, §3

Row | Structure (SMILES) | leaflet viability ([1]; 600 mM sucrose added to all three formulations (VS49, DP6, VS55)) | post-vitrification viability [1] | tissue viability [1] | sugar concentrations in VS55 that demonstrated ice (white) formation [2] | sugar concentrations in VS55 free of ice ([2]; after 7 days at −80 C, 30 mL samples) | visible ice formation [3] | ice formation during cooling and rewarming [3] | leaflet viability ([1]; 600 mM trehalose added to VS49 and VS55)
1 | OC[C@H]1O[C@@](CO)(O[C@H]2O[C@H](CO)[C@@H](O)[C@H](O)[C@H]2O)[C@@H](O)[C@@H]1O [sucrose] | increased | increases | significant increases | 0 to 0.4 M | 0.6 M | prevents visible ice formation | no ice formation | –
2 | OC[C@H]1O[C@H](O[C@H]2O[C@H](CO)[C@@H](O)[C@H](O)[C@H]2O)[C@H](O)[C@@H](O)[C@@H]1O [trehalose] | – | increases | significant increases | 0 to 0.6 M | – | prevents visible ice formation | no ice formation | increased
